“Also recorded” adds a separate entry of the source. Where two headings read alike, the source gives them in different places. Positions of bridges follow the written chain, without caps; N, C: chain ends.
What was measured:
[1] = tested on: NP-1 cells; assay: TGF-β-induced EMT in NP-1 cells (inhibition and reversal); assay type: cell-based; conditions: added after EMT induction for additional 48 hrs; BMP 7 1 μg/ml, THR-123 10 μM
[2] = tested on: UUO animals; assay: Unilateral ureteral obstruction (UUO), FIG. 33-34; assay type: in vivo; conditions: for hydroxyproline content (total collagen) of UUO kidneys: 3-fold increase in vehicle-treated UUO kidneys; for expansion of the interstitial space: UUO animals showed 3 fold expansion
Excerpt: In the animals given BMP-7 or […] Hydroxyproline content, a measure of total collagen, increased 3-fold in the vehicle-treated UUO kidneys compared with sham-operated kidneys. […]

[3] = tested on: mice with unilateral ureteral obstruction (UUO); assay: Unilateral ureteral obstruction (UUO) in mice; assay type: in vivo; conditions: for kidney histology (H&E), day 7 UUO: BMP7 i.p., THR-123 i.p. or orally; for interstitial volume / fibrosis, day 7 UUO: BMP-7 300 μg/Kg every other day i.p., THR-123 5 mg/Kg/day i.p. or oral
Protocol: FIG. 56A-FIG. 56J The effect of THR-123 on mice with unilateral ureteral obstruction (UUO) mice. At the day of UUO, BMP-7 (300 μg/Kg/every other day, intraperitoneal administration) or THR-123 (5 mg/Kg/day, oral or intraperitoneal administration) are initiated. FIG. 56A-FIG. 56D: Masson's trichrome staining of normal kidney, day 5 UUO kidney. FIG. 56A. normal kidney section. […] FIG. 56C, FIG. 56D. […] FIG. 56E. Morphometric analysis for relative interstitial volume. Interstitial volume was calculated by the point counting method. FIG. 56F-FIG. 56I. Masson's trichrome staining of normal kidney, day 7 UUO kidney. […] FIG. 56I. Morphometric analysis for relative interstitial volume. Interstitial volume was calculated by the point counting method. […] Normal mice (n=4), day 5 UUO without treatment (n=4), day 5 UUO-treated with 5 mg/kg THR-123 (n=4), day 5 UUO-treated with 15 mg/kg THR-123 (n=4), day 7 UUO-treated with PBS (n=8), -treated with BMP (n=8) and -treated with THR-123 (n=7 in both i.p. and oral). Data are shown as mean±s.e.m. in the graph (FIG. 56J).
FIG. 57A-FIG. 57H The effect of THR-123 on mice with unilateral ureteral obstruction (UUO) mice (H&E staining). On the day UUO was performed, treatments of BMP7 (300 μg/Kg/every other day, intraperitoneal administration) or THR-123 (5 mg/Kg/day, oral or intraperitoneal administration) are initiated. FIG. 57A. Normal kidney section. FIG. 57B. Day 5 UUO mice FIG. 57C, FIG. 57D. Kidney of UUO mice treated with THR-123 orally at 5 mg/kg (FIG. 57C) or 15 mg/kg (FIG. 57D) E-H. Day 7 UUO kidney histology. […] Normal mice (n=4), day 5 UUO without treatment (n=4), day 5 UUO-treated with 5 mg/kg THR-123 (n=4), day 5 UUO-treated with 15 mg/kg THR-123 (n=4), day 7 UUO-treated with PBS (n=8), -treated with BMP (n=8) and -treated with THR-123 (n=7 in both i.p. and oral).
FIG. 58 Gene expression analysis for the fibrosis markers in mice with UUO. Quantitative RT-PCR analysis for fibronectin-EIII and collagen type-I in normal kidney and day 7 UUO kidney with or without indicated treatment.
Mice are anesthetized with the mixture of ketamine and xylazine. Prepare the ureter from the surrounding tissues and place two ligatures about 5 mm apart in upper two-thirds of the ureter of the left kidney to obtain reliable obstruction. At same day after surgery, mice were initiated treatment with BMP7 (300 μg i.p./Kg/every other day), THR-123 (p.o. 5 mg or 15 mg/Kg/day, i.p. 5 mg/Kg/day) or PBS (i.p.) as control. Mice are sacrificed at day 5 or 7 after operation.

[4] = biological target: T1, Alk-6 (Homo sapiens, UniProt O00238); assay: Radio-ligand (125I-BMP7) receptor binding assay, Alk-6 ECD
T1 construct: Highly purified extra-cellular domain (ECD) of Alk-3 or Alk-6 (expressed as a fusion protein with Fc domain) served as a receptor
T1 sequence (O00238 14-126 limits assumed): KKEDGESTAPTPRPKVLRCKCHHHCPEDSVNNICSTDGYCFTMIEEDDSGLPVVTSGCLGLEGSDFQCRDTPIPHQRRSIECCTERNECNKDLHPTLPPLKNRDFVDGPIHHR
Excerpt: FIG. 45A-FIG. 45G Pharmacokinetics of THR-123. FIG. 45A. BMP7 structure figure with the residue weights resulting from the analysis mapped on to it. FIG. 45B, FIG. 45C. Radio-ligand receptor binding assays specific for individual type I receptors, Alk-3 (FIG. 45B) and Alk-6 (FIG. 45C). Highly purified extra-cellular domain (ECD) of Alk-3 or Alk-6 (expressed as a fusion protein with Fc domain) served as a receptor. In each assay purified receptor was immobilized on each well and peptide analog or unlabeled BMP7 was added, followed by ^125I-labeled BMP7. Radiolabeled BMP7 complex was counted in an auto-gamma counter. Results were expressed as the mean±s.e.m. […] Concentration of THR-123 in systemic circulation of Wistar rats following iv injection of THR-123 (^125I-Tyr) via the tail vein determined by total radioactivity measurement. […] Six hours after intravenous administration of ^125I labeled-THR-123 in rats at a dose of 6.25 mg/kg-body weight, tissues were harvested and analyzed by automatic gamma well counter. […] Radioactivity of orally administrated ^125I labeled-THR-123 at a dose of 5 mg/kg body weight was localized in the kidney between 1 and 6 hours after administration and peaked at around 3 hours.
First, specific affinity of the extra cellular domains (ECD) of the several type I receptors of BMPs to THR-123 was analyzed. […]

(H)-CYFDDSSNVLCKKYRS-(OH) (H-CYFDDSSNVLCKKYRS-OH; disulfide 1-11; SMILES CC(C)C[C@@H]1NC(=O)[C@H](C(C)C)NC(=O)[C@H](CC(N)=O)NC(=O)[C@H](CO)NC(=O)[C@H](CO)NC(=O)[C@H](CC(=O)O)NC(=O)[C@H](CC(=O)O)NC(=O)[C@H](Cc2ccccc2)NC(=O)[C@H](Cc2ccc(O)cc2)NC(=O)[C@@H](N)CSSC[C@@H](C(=O)N[C@@H](CCCCN)C(=O)N[C@@H](CCCCN)C(=O)N[C@@H](Cc2ccc(O)cc2)C(=O)N[C@@H](CCCNC(=N)N)C(=O)N[C@@H](CO)C(=O)O)NC1=O) [SEQ ID NO: 1]
reversal of EMT morphology [1]: reversal of the morphology | hydroxyproline content (total collagen) of UUO kidneys [2]: effectively decreased | expansion of the interstitial space [2]: significantly reduced | kidney histology (H&E), day 7 UUO [3]: preserved tubules | interstitial volume / fibrosis, day 7 UUO ([3]; 5 mg/kg/day): inhibited fibrosis; also recorded: less kidney interstitial volume | interstitial volume expansion, day 5 UUO ([3]; THR-123 oral 5 mg/Kg or 15 mg/Kg): inhibited interstitial volume expansion | kidney histology, day 5 UUO ([3]; THR-123 orally 5 mg/kg or 15 mg/kg): less tubular atrophy, tubular dilatation and interstitial inflammation | expression of fibronectin and type I collagen, day 7 UUO ([3]; quantitative RT-PCR): decreased expression of matrix components such as fibronectin and type I collagen | binding to ALK6 (competition with 125I-BMP7) ([4]; listed as THR-123): absolutely no competition; also recorded: does not bind

B1: BMP-7: bone morphogenetic protein-7; recombinant human BMP7, positive control (protein)
chain: STGSKQRSQNRSKTPKNQEALRMANVAENSSSDQRQACKKHELYVSFRDLGWQDWIIAPEGYAAYYCEGECAFPLNSYMNATNHAIVQTLVHFINPETVPKPCCAPTQLNAISVLYFDDSSNVILKKYRNMVVRACGCH
reversal of EMT morphology [1]: reversal of the morphology | hydroxyproline content (total collagen) of UUO kidneys [2]: effectively decreased | expansion of the interstitial space [2]: significantly reduced | kidney histology (H&E), day 7 UUO [3]: preserved tubules | interstitial volume / fibrosis, day 7 UUO [3]: ameliorated interstitial volume expansion | interstitial volume / fibrosis, day 7 UUO ([3]; listed as BMP7): less kidney interstitial volume | binding to ALK6 (competition with 125I-BMP7) [4]: binds

Reference: patent publication US20160058829A1, “ANTI-FIBROTIC PEPTIDES AND THEIR USE IN METHODS FOR TREATING DISEASES AND DISORDERS CHARACTERIZED BY FIBROSIS” (Thrasos Innovation, Inc., priority 2011, published 2016)
